# Reference: paper PMC6661809, “Lead optimization for promising monoamine oxidase inhibitor from eugenol for the treatment of neurological disorder: synthesis and in silico based study” (BMC Chemistry, 2019)
# Tested on: not listed separately
# Assay: Ferric reducing antioxidant power (FRAP) assay;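 further: Ferrous-TPTZ reduction read as absorbance at 593 nm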
# Details: Table 9, mean ± SEM, n = 3
# Method: The capacity of antioxidants to decrease ferric iron is measured by this method. The reaction of […] (TPTZ) and complex ferric iron yields ferrous form at low pH. […] This method was adopted from the reports of Benzie et al..
row,FRAP IC50 [µg/mL],Compound
1,14.63 ± 0.007,"C=CCc1ccc(OC(=O)c2ccccc2O)c(OC)c1 [Compound 13c, 4-allyl-2-methoxyphenyl 2-hydroxybenzoate]"
2,5.934 ± 0.053,1-(2-(4-allylphenoxy)acetyl)-4-(4-hydroxybenzoyl)thiosemicarbazide [Compound 5a]
3,8.112 ± 0.091,"O=C1O[C@H]([C@@H](O)CO)C(O)=C1O [L-Ascorbic acid, reference compound]"
4,9.126 ± 0.013,"C=CCc1ccc(OCC(=O)NNC(=O)c2ccccn2)c(OC)c1 [Compound 11, N′-(2-(4-allyl-2-methoxyphenoxy)acetyl)picolinohydrazide]"
5,18.14 ± 0.001,"C=CCc1ccc(OC(=O)c2ccc(O)c(OC)c2)c(OC)c1 [Compound 13a, 4-allyl-2-methoxyphenyl 4-hydroxy-3-methoxybenzoate]"
6,9.912 ± 0.005,"C=CCc1ccc(OCC(=O)NNC(=O)c2ccccc2S)c(OC)c1 [Compound 9b, N′-(2-(4-allyl-2-methoxyphenoxy)acetyl)-2-mercaptobenzohydrazide]"

# Target: T1, hMAO-A (Homo sapiens, UniProt P21397)
# T1 construct: purchased Sigma-Aldrich; host or cells: insect cells (BTI-TN-5B14) infected with recombinant baculovirus
# T1 sequence (P21397 1-527): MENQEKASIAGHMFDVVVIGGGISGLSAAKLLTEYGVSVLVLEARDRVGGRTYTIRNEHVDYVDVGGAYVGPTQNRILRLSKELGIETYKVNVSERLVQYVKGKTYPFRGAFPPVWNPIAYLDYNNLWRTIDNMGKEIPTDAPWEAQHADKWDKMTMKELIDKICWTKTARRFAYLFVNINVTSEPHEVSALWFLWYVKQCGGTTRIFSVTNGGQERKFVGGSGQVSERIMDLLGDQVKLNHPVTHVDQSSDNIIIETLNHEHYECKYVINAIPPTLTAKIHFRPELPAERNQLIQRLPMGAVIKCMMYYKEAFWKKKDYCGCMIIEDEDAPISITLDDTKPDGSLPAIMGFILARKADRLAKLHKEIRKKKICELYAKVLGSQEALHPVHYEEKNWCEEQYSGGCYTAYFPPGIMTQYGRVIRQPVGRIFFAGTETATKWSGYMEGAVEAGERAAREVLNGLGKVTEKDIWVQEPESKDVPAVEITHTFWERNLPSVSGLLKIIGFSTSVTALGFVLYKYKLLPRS
# Assay: Recombinant human MAO-A inhibition screening (Amplex Red, p-tyramine)
# Format: biochemical
# Details: IC50 (MAO-A)/IC50 (MAO-B)
# Excerpt: (§1) To evaluate IC50 values for the inhibition of human MAO-A and MAO-B by newly synthesized compounds the commercially available recombinant human enzymes expressed in insect cells were used (Sigma-Aldrich). The MAO inhibition assay was based on the method described by Anderson et al., 1993 and Chimenti et al. with some modifications. The Amplex Red MAO Kit tyramine (Sigma-Aldrich) affords a suitable fluorimetric method to evaluate MAO enzyme action of synthetic and natural compounds. In the assay, MAO reacts with p-tyramine, a common substrate for both MAO isoforms, ensuing in the production of H2O2, which is identified by a fluorimetric method (λex = 530/λem = 585 nm). Each test well contained 0.1 mL of sodium phosphate buffer (0.05 M, pH 7.4), a range of concentrations of the eugenol based derivatives or reference compounds along with recombinant hMAO-A or hMAO-B in appropriate quantity. After the preparation of this mixture the wells were subjected to incubation for 15 min at 37 °C, placed in the dark fluorimeter chamber. Once this incubation period over, the process was rendered by mixing 200 µM Amplex Red reagent (Sigma-Aldrich), 1 U/mL horseradish peroxidase (Sigma-Aldrich) and p-tyramine (Sigma-Aldrich). Subsequently, the formation of hydrogen peroxide exerted by MAO isoforms was quantified by using Amplex-Red reagent, a non-fluorescent probe that reacts with H2O2 in the existence of horse radish peroxidase to generate the fluorescent component resorufin. Moreover, the control analysis was calculated in the absence of compound and reference inhibitors. The probability of compounds to change the fluorescence produced in the reaction mix due to non-enzymatic inhibition was assessed by mixing titled compounds to solutions of single Amplex Red reagent in a sodium phosphate buffer. Data were processed in Microsoft Excel, to calculate IC50 values.
row,Selectivity index,Compound
1,1.76,"C=CCc1ccc(OC(=O)c2ccccc2O)c(OC)c1 [Compound 13c, 4-allyl-2-methoxyphenyl 2-hydroxybenzoate]"
2,0.53,1-(2-(4-allylphenoxy)acetyl)-4-(4-hydroxybenzoyl)thiosemicarbazide [Compound 5a]
3,0.67,"C=CCc1ccc(OCC(=O)NNC(=O)c2ccccn2)c(OC)c1 [Compound 11, N′-(2-(4-allyl-2-methoxyphenoxy)acetyl)picolinohydrazide]"
4,5.14,"C=CCc1ccc(OC(=O)c2ccc(O)c(OC)c2)c(OC)c1 [Compound 13a, 4-allyl-2-methoxyphenyl 4-hydroxy-3-methoxybenzoate]"
5,0.59,"C=CCc1ccc(OCC(=O)NNC(=O)c2ccccc2S)c(OC)c1 [Compound 9b, N′-(2-(4-allyl-2-methoxyphenoxy)acetyl)-2-mercaptobenzohydrazide]"

# Same assay, conditions: recombinant hMAO-A, p-tyramine substrate, mean SEM
row,IC50 [µM],Compound
1,22.38 ± 0.067,"C=CCc1ccc(OC(=O)c2ccccc2O)c(OC)c1 [Compound 13c, 4-allyl-2-methoxyphenyl 2-hydroxybenzoate]"
2,15.85 ± 0.039,1-(2-(4-allylphenoxy)acetyl)-4-(4-hydroxybenzoyl)thiosemicarbazide [Compound 5a]
3,18.06 ± 0.044,"C=CCc1ccc(OCC(=O)NNC(=O)c2ccccn2)c(OC)c1 [Compound 11, N′-(2-(4-allyl-2-methoxyphenoxy)acetyl)picolinohydrazide]"
4,38.53 ± 0.018,"C=CCc1ccc(OC(=O)c2ccc(O)c(OC)c2)c(OC)c1 [Compound 13a, 4-allyl-2-methoxyphenyl 4-hydroxy-3-methoxybenzoate]"
5,16.62 ± 0.004,"C=CCc1ccc(OCC(=O)NNC(=O)c2ccccc2S)c(OC)c1 [Compound 9b, N′-(2-(4-allyl-2-methoxyphenoxy)acetyl)-2-mercaptobenzohydrazide]"

# Tested on: not given
# Assay: not given
# Details: not given
row,melting point [°C],Compound
1,157 to 159,"C=CCc1ccc(OC(=O)c2ccccc2O)c(OC)c1 [Compound 13c, 4-allyl-2-methoxyphenyl 2-hydroxybenzoate]"
2,204 to 205,"C=CCc1ccc(OCC(=O)NNC(=O)c2ccccn2)c(OC)c1 [Compound 11, N′-(2-(4-allyl-2-methoxyphenoxy)acetyl)picolinohydrazide]"
3,199 to 200,"C=CCc1ccc(OC(=O)c2ccc(O)c(OC)c2)c(OC)c1 [Compound 13a, 4-allyl-2-methoxyphenyl 4-hydroxy-3-methoxybenzoate]"
4,210 to 211,"C=CCc1ccc(OCC(=O)NNC(=O)c2ccccc2S)c(OC)c1 [Compound 9b, N′-(2-(4-allyl-2-methoxyphenoxy)acetyl)-2-mercaptobenzohydrazide]"

# Tested on: not listed separately
# Assay: Nitric oxide scavenging activity
# Details: Table 8, mean ± SEM, n = 3
# Excerpt: The generation of nitric oxide (NO·) on biological tissues is mediated by particular nitric oxide synthases enzyme that control the catabolism of the arginine to citrulline via creation of NO through a five electron oxidative reaction. At the physiological pH (7.2) in aqueous solution sodium nitroprusside decompose to produce NO·. Finally, NO· reacts with oxygen at underaerobic conditions and produces stable products (nitrate and nitrite), this amount can be determined by means of Griess reagent. The procedure for the nitric oxide scavenging activity was adopted from reports of Alam et al..
row,Nitric oxide scavenging IC50 [µg/mL],Compound
1,14.63 ± 0.412,"C=CCc1ccc(OC(=O)c2ccccc2O)c(OC)c1 [Compound 13c, 4-allyl-2-methoxyphenyl 2-hydroxybenzoate]"
2,7.156 ± 0.002,1-(2-(4-allylphenoxy)acetyl)-4-(4-hydroxybenzoyl)thiosemicarbazide [Compound 5a]
3,7.523 ± 0.005,"O=C1O[C@H]([C@@H](O)CO)C(O)=C1O [L-Ascorbic acid, reference compound]"
4,10.71 ± 0.743,"C=CCc1ccc(OCC(=O)NNC(=O)c2ccccn2)c(OC)c1 [Compound 11, N′-(2-(4-allyl-2-methoxyphenoxy)acetyl)picolinohydrazide]"
5,20.23 ± 0.073,"C=CCc1ccc(OC(=O)c2ccc(O)c(OC)c2)c(OC)c1 [Compound 13a, 4-allyl-2-methoxyphenyl 4-hydroxy-3-methoxybenzoate]"
6,8.095 ± 0.018,"C=CCc1ccc(OCC(=O)NNC(=O)c2ccccc2S)c(OC)c1 [Compound 9b, N′-(2-(4-allyl-2-methoxyphenoxy)acetyl)-2-mercaptobenzohydrazide]"

# Tested on: not listed separately
# Assay: DPPH scavenging activity
# Details: Table 6, mean ± SEM, n = 3
# Method: Solutions of synthesized compounds were set in ethanol/water (1:1) having 10 mM to 100 mM at a period of 10 mM. The 0.01% DPPH· stock solution was prepared in ethanol/water (1:1). Samples were prepared as 5 mL DPPH· solution was mixed with 5 mL L-ascorbic acid solution then shaken vigorously and kept in the dark. Corresponding blank sample were prepared and L-ascorbic acid was used as reference standard. […] The actual decrease in absorption induced by the test was compared with the positive controls. The IC50 values were calculated use the dose inhibition curve in linear range by plotting the extract concentration versus the corresponding scavenging effect through following equation [(ADR − APR)/AO] × 100. Where ADR is the absorbance prior to reaction and APR is the absorbance after reaction with DPPH·.
row,DPPH scavenging IC50 [µg/mL],Compound
1,16.04 ± 0.026,"C=CCc1ccc(OC(=O)c2ccccc2O)c(OC)c1 [Compound 13c, 4-allyl-2-methoxyphenyl 2-hydroxybenzoate]"
2,9.152 ± 0.063,1-(2-(4-allylphenoxy)acetyl)-4-(4-hydroxybenzoyl)thiosemicarbazide [Compound 5a]
3,8.58 ± 0.009,"O=C1O[C@H]([C@@H](O)CO)C(O)=C1O [L-Ascorbic acid, reference compound]"
4,11.21 ± 0.044,"C=CCc1ccc(OCC(=O)NNC(=O)c2ccccn2)c(OC)c1 [Compound 11, N′-(2-(4-allyl-2-methoxyphenoxy)acetyl)picolinohydrazide]"
5,20.66 ± 0.032,"C=CCc1ccc(OC(=O)c2ccc(O)c(OC)c2)c(OC)c1 [Compound 13a, 4-allyl-2-methoxyphenyl 4-hydroxy-3-methoxybenzoate]"
6,9.293 ± 0.028,"C=CCc1ccc(OCC(=O)NNC(=O)c2ccccc2S)c(OC)c1 [Compound 9b, N′-(2-(4-allyl-2-methoxyphenoxy)acetyl)-2-mercaptobenzohydrazide]"

# Tested on: not listed separately
# Assay: Hydrogen peroxide scavenging (H2O2) assay
# Details: Table 7, mean ± SEM, n = 3
# Method: Hydrogen peroxide generally turns into water and oxygen and produces highly toxic hydroxyl radical that renders the damage to DNA and peroxidation of lipid. H2O2 scavenging ability of eugenol based derivatives was evaluated by method described by Nakano and colleagues with some alteration. The hydrogen peroxide solution (40 mM) was prepared in phosphate buffer (40 mM pH 7.4) and addition of several ranges of synthesized derivatives (05–80 μg/mL) was done into H2O2 solution (2 mL). The determination of H2O2 concentration was done by UV/Vis Epoch ELISA reader at 230 nm upon incubation of 10 min. Solution of phosphate buffer without H2O2 was noted as blank reading. The hydrogen peroxide percentage inhibition was estimated through the formula [(AH − AD)/AO] × 100, where AH is the absorbance of the control and AD is the absorbance of compounds/reference taken as 05–80 μg/mL L-ascorbic acid.
row,H2O2 scavenging IC50 [µg/mL],Compound
1,15.7 ± 0.784,"C=CCc1ccc(OC(=O)c2ccccc2O)c(OC)c1 [Compound 13c, 4-allyl-2-methoxyphenyl 2-hydroxybenzoate]"
2,9.156 ± 0.002,1-(2-(4-allylphenoxy)acetyl)-4-(4-hydroxybenzoyl)thiosemicarbazide [Compound 5a]
3,8.121 ± 0.082,"O=C1O[C@H]([C@@H](O)CO)C(O)=C1O [L-Ascorbic acid, reference compound]"
4,10.33 ± 0.022,"C=CCc1ccc(OCC(=O)NNC(=O)c2ccccn2)c(OC)c1 [Compound 11, N′-(2-(4-allyl-2-methoxyphenoxy)acetyl)picolinohydrazide]"
5,26.6 ± 0.544,"C=CCc1ccc(OC(=O)c2ccc(O)c(OC)c2)c(OC)c1 [Compound 13a, 4-allyl-2-methoxyphenyl 4-hydroxy-3-methoxybenzoate]"
6,9.393 ± 0.017,"C=CCc1ccc(OCC(=O)NNC(=O)c2ccccc2S)c(OC)c1 [Compound 9b, N′-(2-(4-allyl-2-methoxyphenoxy)acetyl)-2-mercaptobenzohydrazide]"

# Target: T2, hMAO-B (Homo sapiens, UniProt P27338)
# T2 construct: purchased Sigma-Aldrich; host or cells: insect cells (BTI-TN-5B14) infected with recombinant baculovirus
# T2 sequence (P27338 1-520): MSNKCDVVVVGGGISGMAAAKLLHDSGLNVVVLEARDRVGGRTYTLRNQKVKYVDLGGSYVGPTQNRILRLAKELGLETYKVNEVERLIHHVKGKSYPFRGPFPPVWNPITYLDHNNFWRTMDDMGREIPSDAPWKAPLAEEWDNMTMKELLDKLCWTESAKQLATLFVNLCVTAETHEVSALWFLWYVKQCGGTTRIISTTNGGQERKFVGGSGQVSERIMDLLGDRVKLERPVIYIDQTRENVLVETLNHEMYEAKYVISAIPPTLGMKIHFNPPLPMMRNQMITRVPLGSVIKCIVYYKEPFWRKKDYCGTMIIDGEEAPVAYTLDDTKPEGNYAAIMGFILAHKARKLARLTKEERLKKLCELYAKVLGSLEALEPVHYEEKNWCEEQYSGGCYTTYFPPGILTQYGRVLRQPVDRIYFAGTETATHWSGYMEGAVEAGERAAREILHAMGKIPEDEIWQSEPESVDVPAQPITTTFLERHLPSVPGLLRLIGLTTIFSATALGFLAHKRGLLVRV
# Assay: Recombinant human MAO-B inhibition screening (Amplex Red, p-tyramine)
# Format: biochemical
# Details: p-tyramine substrate, mean SEM
# Excerpt: as §1
row,IC50 [µM],Compound
1,12.66 ± 0.021,"C=CCc1ccc(OC(=O)c2ccccc2O)c(OC)c1 [Compound 13c, 4-allyl-2-methoxyphenyl 2-hydroxybenzoate]"
2,29.37 ± 0.048,1-(2-(4-allylphenoxy)acetyl)-4-(4-hydroxybenzoyl)thiosemicarbazide [Compound 5a]
3,26.8 ± 0.077,"C=CCc1ccc(OCC(=O)NNC(=O)c2ccccn2)c(OC)c1 [Compound 11, N′-(2-(4-allyl-2-methoxyphenoxy)acetyl)picolinohydrazide]"
4,7.494 ± 0.014,"C=CCc1ccc(OC(=O)c2ccc(O)c(OC)c2)c(OC)c1 [Compound 13a, 4-allyl-2-methoxyphenyl 4-hydroxy-3-methoxybenzoate]"
5,27.85 ± 0.054,"C=CCc1ccc(OCC(=O)NNC(=O)c2ccccc2S)c(OC)c1 [Compound 9b, N′-(2-(4-allyl-2-methoxyphenoxy)acetyl)-2-mercaptobenzohydrazide]"
